Measured values as given in patent publication US20250154144A1 (CHILDREN'S HOSPITAL MEDICAL CENTER, priority 2021, published 2025).
Like-named read-outs stand apart in the source and are kept apart here.

Columns and labels:
MOLM14 D835Y cells = experiment: cells; assay type: cell-based; details: Homo sapiens, MOLM-14, 48 h, 48 hours, Cell Titer Glo; read-out: MOLM14 D835Y IC50
MOLM14 F691L cells = experiment: cells; assay type: cell-based; details: Homo sapiens, MOLM-14, 48 h, 48 hours, Cell Titer Glo; read-out: MOLM14 F691L IC50
IRAK1 [1] = biological target: T1, IRAK1 (Homo sapiens, UniProt P51617); experiment: RBC HotSpot Kinase Assay, IRAK1; details: IRAK1 IC50
T1 sequence (P51617 whole entry): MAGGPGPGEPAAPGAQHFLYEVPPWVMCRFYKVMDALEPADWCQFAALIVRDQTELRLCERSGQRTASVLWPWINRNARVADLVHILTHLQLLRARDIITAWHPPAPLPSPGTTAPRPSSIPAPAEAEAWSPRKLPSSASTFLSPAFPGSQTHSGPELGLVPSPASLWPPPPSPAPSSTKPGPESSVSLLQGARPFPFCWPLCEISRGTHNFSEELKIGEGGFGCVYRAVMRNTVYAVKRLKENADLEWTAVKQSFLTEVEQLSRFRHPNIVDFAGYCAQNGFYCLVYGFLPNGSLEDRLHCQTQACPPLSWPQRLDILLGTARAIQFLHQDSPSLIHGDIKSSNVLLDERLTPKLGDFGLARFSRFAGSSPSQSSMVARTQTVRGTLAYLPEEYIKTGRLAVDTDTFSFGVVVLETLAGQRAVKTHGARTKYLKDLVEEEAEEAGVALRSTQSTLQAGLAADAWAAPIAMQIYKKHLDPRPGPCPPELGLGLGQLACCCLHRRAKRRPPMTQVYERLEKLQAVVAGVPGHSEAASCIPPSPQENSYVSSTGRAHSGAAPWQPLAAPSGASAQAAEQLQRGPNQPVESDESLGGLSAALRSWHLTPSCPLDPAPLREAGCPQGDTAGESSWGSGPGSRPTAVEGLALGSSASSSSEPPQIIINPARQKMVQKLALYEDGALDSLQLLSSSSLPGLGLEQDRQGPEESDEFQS

IRAK4 [2] = biological target: T2, IRAK4 (Homo sapiens, UniProt Q9NWZ3); experiment: RBC HotSpot Kinase Assay, IRAK4; details: IRAK4 IC50
T2 sequence (Q9NWZ3 1-460): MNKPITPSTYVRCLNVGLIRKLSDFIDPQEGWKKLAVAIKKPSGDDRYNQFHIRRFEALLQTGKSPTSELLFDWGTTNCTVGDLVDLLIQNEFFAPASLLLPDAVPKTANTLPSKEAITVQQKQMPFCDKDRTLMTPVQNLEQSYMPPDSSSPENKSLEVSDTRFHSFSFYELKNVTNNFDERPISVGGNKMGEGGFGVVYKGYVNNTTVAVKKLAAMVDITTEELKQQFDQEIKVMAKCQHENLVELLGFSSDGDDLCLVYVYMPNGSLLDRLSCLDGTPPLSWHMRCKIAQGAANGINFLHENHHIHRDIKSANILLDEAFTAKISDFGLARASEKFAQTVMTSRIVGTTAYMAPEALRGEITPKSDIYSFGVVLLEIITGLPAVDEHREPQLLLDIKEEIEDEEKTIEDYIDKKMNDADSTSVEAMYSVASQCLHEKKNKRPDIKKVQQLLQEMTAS

IRAK1 [3] = biological target: T1, IRAK1; experiment: DiscoverX KINOMEscan competition binding, IRAK1; parameters: purchased RBC (Reaction Biology) HotSpot assay
IRAK4 [4] = biological target: T2, IRAK4; experiment: DiscoverX KINOMEscan competition binding, IRAK4; parameters: purchased RBC (Reaction Biology) HotSpot assay
THP1 cells = experiment: Combination drug screening, Cell Titer Glo, 10 × 10 matrix, THP1 cells; assay type: cell-based; details: THP1 cells; for Excess HSA Score: 10 × 10
MOLM14(D835Y) cells = assay type: cell-based; details: MOLM14(D835Y) cells; for Excess HSA Score: 10 × 10
FLT3 [5] = biological target: T3, FLT3 (Homo sapiens, UniProt P36888); experiment: RBC HotSpot Kinase Assay, FLT3; details: FLT3 IC50
T3 sequence (P36888 610-943 limits assumed): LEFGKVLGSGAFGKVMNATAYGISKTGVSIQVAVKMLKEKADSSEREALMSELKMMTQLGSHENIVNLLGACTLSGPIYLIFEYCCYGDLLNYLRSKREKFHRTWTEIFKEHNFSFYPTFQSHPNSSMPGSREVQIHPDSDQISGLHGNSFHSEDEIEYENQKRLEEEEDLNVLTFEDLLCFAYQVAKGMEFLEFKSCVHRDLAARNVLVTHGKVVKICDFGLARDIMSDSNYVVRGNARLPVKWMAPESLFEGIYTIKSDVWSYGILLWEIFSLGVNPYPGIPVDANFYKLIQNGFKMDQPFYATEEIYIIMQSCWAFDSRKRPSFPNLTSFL

FLT3 [6] = biological target: T4, FLT3 (Homo sapiens, UniProt P36888); experiment: Reaction Biology NanoBRET target engagement assay in HEK-293 cells, FLT3; details: NanoBRET FLT3 IC50, HEK-293 cells
T4 sequence (P36888 27-993): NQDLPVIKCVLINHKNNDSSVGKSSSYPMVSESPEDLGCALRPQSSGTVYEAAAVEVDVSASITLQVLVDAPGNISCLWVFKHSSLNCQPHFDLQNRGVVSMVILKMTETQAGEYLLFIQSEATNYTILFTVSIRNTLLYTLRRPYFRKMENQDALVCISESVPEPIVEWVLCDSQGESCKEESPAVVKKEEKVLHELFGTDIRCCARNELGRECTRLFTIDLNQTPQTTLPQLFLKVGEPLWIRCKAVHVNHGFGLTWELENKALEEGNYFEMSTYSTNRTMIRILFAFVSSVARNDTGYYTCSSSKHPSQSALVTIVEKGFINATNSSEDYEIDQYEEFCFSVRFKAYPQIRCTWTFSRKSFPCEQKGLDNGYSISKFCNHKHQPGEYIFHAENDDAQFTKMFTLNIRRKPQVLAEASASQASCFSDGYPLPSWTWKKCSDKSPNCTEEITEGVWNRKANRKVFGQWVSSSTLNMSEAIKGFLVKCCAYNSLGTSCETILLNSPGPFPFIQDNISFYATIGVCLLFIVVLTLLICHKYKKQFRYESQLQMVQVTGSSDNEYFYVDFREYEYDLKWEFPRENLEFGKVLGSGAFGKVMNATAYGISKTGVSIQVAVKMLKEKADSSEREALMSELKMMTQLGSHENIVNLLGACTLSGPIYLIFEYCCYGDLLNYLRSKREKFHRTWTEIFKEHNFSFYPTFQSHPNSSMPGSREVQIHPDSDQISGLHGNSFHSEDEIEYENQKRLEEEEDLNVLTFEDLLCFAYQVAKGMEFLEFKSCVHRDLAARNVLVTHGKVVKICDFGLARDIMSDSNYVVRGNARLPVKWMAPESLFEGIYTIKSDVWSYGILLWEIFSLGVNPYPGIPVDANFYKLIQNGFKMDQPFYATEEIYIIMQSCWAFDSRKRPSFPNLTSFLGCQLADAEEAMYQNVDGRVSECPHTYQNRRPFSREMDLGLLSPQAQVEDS

IRAK4 [7] = biological target: T2, IRAK4; experiment: Reaction Biology NanoBRET target engagement assay in HEK-293 cells, IRAK4; details: NanoBRET IRAK4 IC50, HEK-293 cells
[8] = combination with (+)-BAY-1251152
[9] = combination with Eprenetapopt/APR-246
[10] = combination with Venetoclax (ABT-199)

| Compound | IC50 (MOLM14 D835Y cells) | IC50 (MOLM14 F691L cells) | IC50 (IRAK1 [1]) | IC50 (IRAK4 [2]) | Excess HSA Score (THP1 cells; [8]) | Excess HSA Score (THP1 cells; combination with AMG-232) | Excess HSA Score (THP1 cells; combination with AZD-5363) | Excess HSA Score (THP1 cells; [9]) | Excess HSA Score (THP1 cells; combination with Ivosidenib) | Excess HSA Score (THP1 cells; combination with Lenalidomide) | Excess HSA Score (THP1 cells; combination with Palbociclib) | Excess HSA Score (THP1 cells; combination with Prednisolone) | Excess HSA Score (THP1 cells; combination with SNDX-5613) | Excess HSA Score (THP1 cells; combination with TNO-155) | Excess HSA Score (THP1 cells; combination with Trametinib) | Excess HSA Score (THP1 cells; combination with Ulixertinib) | Excess HSA Score (THP1 cells; [10]) | Excess HSA Score (MOLM14(D835Y) cells; [8]) | Excess HSA Score (MOLM14(D835Y) cells; combination with AMG-232) | Excess HSA Score (MOLM14(D835Y) cells; combination with AZD-5363) | other results |
| --- | --- | --- | --- | --- | --- | --- | --- | --- | --- | --- | --- | --- | --- | --- | --- | --- | --- | --- | --- | --- | --- |
| COc1cc2ncc(-c3ccnc(N[C@H]4CNC[C@@H]4F)n3)n2cc1C(C)(C)O [Compound 43, 2-(3-(2-(((3S,4S)-4-fluoropyrrolidin-3-yl)amino)pyrimidin-4-yl)-7-methoxyimidazo[1,2-a]pyridin-6-yl)propan-2-ol] | 11 nM | 69 nM | 0.7 nM | < 0.5 nM | – | – | – | – | – | – | – | – | – | – | – | – | – | – | – | – | Kd (IRAK1 [3]): 0.33 nM; Kd (IRAK4 [4]): 0.081 nM |
| COc1cc2ncc(-c3ccnc(N[C@H]4CNCC[C@@H]4F)n3)n2cc1C(C)(C)O [Compound 45, 2-(3-(2-(((3S,4S)-4-fluoropiperidin-3-yl)amino)pyrimidin-4-yl)-7-methoxyimidazo[1,2-a]pyridin-6-yl)propan-2-ol] | 9 nM | 43 nM | 2 nM | 0.7 nM | −402.7072 | 138.2 | −206.1 | 183 | 93.15 | 388.3 | −236 | 67.79 | 169.6 | −134.2061 | −226.2 | 218.0361 | −360.8 | 117.1 | −212.5 | 384.6 | Comments (THP1 cells; [8]): Synergistic; Comments (THP1 cells; combination with Prednisolone): Antagonistic; Excess HSA Score (MOLM14(D835Y) cells; [9]): 477.7; Excess HSA Score (MOLM14(D835Y) cells; combination with Ivosidenib): −76.48; Excess HSA Score (MOLM14(D835Y) cells; combination with Lenalidomide): 515.9; Excess HSA Score (MOLM14(D835Y) cells; combination with Palbociclib): −172.2; Excess HSA Score (MOLM14(D835Y) cells; combination with Prednisolone): −357.5; Excess HSA Score (MOLM14(D835Y) cells; combination with SNDX-5613): 58.42; Excess HSA Score (MOLM14(D835Y) cells; combination with TNO-155): −372.6; Excess HSA Score (MOLM14(D835Y) cells; combination with Trametinib): −362.6; Excess HSA Score (MOLM14(D835Y) cells; combination with Ulixertinib): 288.2; Excess HSA Score (MOLM14(D835Y) cells; [10]): −803.3; Comments (MOLM14(D835Y) cells; combination with SNDX-5613): Antagonistic; Comments (MOLM14(D835Y) cells; [10]): Synergistic; IC50 (FLT3 [5]): < 0.5 nM; IC50 (FLT3 [6]): 28 nM; IC50 (IRAK4 [7]): < 0.5 nM |
| COc1ccn2c(-c3ccnc(N[C@H]4CNC[C@@H]4F)n3)cnc2c1 [Compound 28, N-((3S,4S)-4-fluoropyrrolidin-3-yl)-4-(7-methoxyimidazo[1,2-a]pyridin-3-yl)pyrimidin-2-amine] | 19 nM | 307 nM | 6 nM | 0.8 nM | −347.5 | 401.8 | −208.6 | −126.4 | 313 | 486.7 | −270.8 | 381.4 | 492.2 | 98.5766 | −880.8 | −60.25 | −1412 | −477 | −628.3 | −377.1 | Comments (THP1 cells; combination with TNO-155): Antagonistic; Comments (THP1 cells; [10]): Synergistic; Excess HSA Score (MOLM14(D835Y) cells; [9]): 330.3; Excess HSA Score (MOLM14(D835Y) cells; combination with Ivosidenib): −92.39; Excess HSA Score (MOLM14(D835Y) cells; combination with Lenalidomide): 340.1; Excess HSA Score (MOLM14(D835Y) cells; combination with Palbociclib): −207.7; Excess HSA Score (MOLM14(D835Y) cells; combination with Prednisolone): −600.8; Excess HSA Score (MOLM14(D835Y) cells; combination with SNDX-5613): 49.85; Excess HSA Score (MOLM14(D835Y) cells; combination with TNO-155): −593.8; Excess HSA Score (MOLM14(D835Y) cells; combination with Trametinib): 115.3; Excess HSA Score (MOLM14(D835Y) cells; combination with Ulixertinib): 57.98; Excess HSA Score (MOLM14(D835Y) cells; [10]): −1089; Comments (MOLM14(D835Y) cells; combination with SNDX-5613): Antagonistic; Comments (MOLM14(D835Y) cells; [10]): Synergistic; IC50 (FLT3 [5]): < 0.5 nM; IC50 (FLT3 [6]): 65 nM; IC50 (IRAK4 [7]): 0.7 nM |
